Laboratory results: ChEMBL document CHEMBL1649397, “Synthesis of a-factor peptide from Saccharomyces cerevisiae and photoactive analogues via Fmoc solid phase methodology” (Bioorg Med Chem, 2011)
Activity calls are given as the source filed them. The rule behind the calls is not given here. Where a SMILES comes first, the peptide text is derived from it. The star is where a group is joined. X3 = C/C(=C/C*)CC/C=C(\C)COCc1cccc(C(=O)c2ccccc2)c1; X2 = C/C(=C/C*)COCc1cccc(C(=O)c2ccccc2)c1; X1 = CC(C)=CCC/C(C)=C/CC/C(C)=C\C*

Assays:
Type in all cases: functional, organism-based
Saccharomyces cerevisiae [1] = experiment: Growth arrest against Saccharomyces cerevisiae RC757 assessed as zone of inhibition at 0.25 ng after overnight incubation
Saccharomyces cerevisiae [2] = experiment: Growth arrest against Saccharomyces cerevisiae RC757 assessed as zone of inhibition at 0.50 ng after overnight incubation
Saccharomyces cerevisiae [3] = experiment: Growth arrest against Saccharomyces cerevisiae LM102 assessed as zone of inhibition after overnight incubation
Saccharomyces cerevisiae [4] = experiment: Growth arrest against Saccharomyces cerevisiae RC757 assessed as zone of inhibition after overnight incubation

## CC[C@H](C)[C@H](NC(=O)[C@@H](NC(=O)[C@@H](N)Cc1ccc(O)cc1)[C@@H](C)CC)C(=O)N[C@@H](CCCCN)C(=O)NCC(=O)N[C@H](C(=O)N[C@@H](Cc1ccccc1)C(=O)N[C@@H](Cc1c[nH]c2ccccc12)C(=O)N[C@@H](CC(=O)O)C(=O)N1CCC[C@H]1C(=O)N[C@@H](C)C(=O)N[C@@H](CSC/C=C(/C)COCc1cccc(C(=O)c2ccccc2)c1)C(=O)OC)C(C)C (H-YIIKGVFWDPAC(X2)-OMe)
Saccharomyces cerevisiae [1]
  inhibition zone (IZ): Active

## CC[C@H](C)[C@H](NC(=O)[C@@H](NC(=O)[C@@H](N)Cc1ccc(O)cc1)[C@@H](C)CC)C(=O)N[C@@H](CCCCN)C(=O)NCC(=O)N[C@H](C(=O)N[C@@H](Cc1ccccc1)C(=O)N[C@@H](Cc1c[nH]c2ccccc12)C(=O)N[C@@H](CC(=O)O)C(=O)N1CCC[C@H]1C(=O)N[C@@H](C)C(=O)N[C@@H](CSC/C=C(/C)CC/C=C(\C)COCc1cccc(C(=O)c2ccccc2)c1)C(=O)OC)C(C)C (H-YIIKGVFWDPAC(X3)-OMe)
Saccharomyces cerevisiae [2]
  inhibition zone (IZ): Active

## CC[C@H](C)[C@H](NC(=O)[C@@H](NC(=O)[C@@H](N)Cc1ccc(O)cc1)[C@@H](C)CC)C(=O)N[C@@H](CCCCN)C(=O)NCC(=O)N[C@H](C(=O)N[C@@H](Cc1ccccc1)C(=O)N[C@@H](Cc1c[nH]c2ccccc12)C(=O)N[C@@H](CC(=O)O)C(=O)N1CCC[C@H]1C(=O)N[C@@H](C)C(=O)N[C@@H](CSC/C=C(/C)CC/C=C(\C)CCC=C(C)C)C(=O)OC)C(C)C (H-YIIKGVFWDPAC(X1)-OMe)
Saccharomyces cerevisiae [3]
  inhibition zone (IZ): inactive
Saccharomyces cerevisiae [4]
  inhibition zone (IZ): Active
